According to patent CN109329202A, “一种有效抑制n-羟乙酰神经氨酸合成的方法” (Guizhou University, priority 2018, dated 2019):

System: Neu5Gc synthesis [Neu5Gc的合成]
Assay: Neu5Gc degradation in rat muscle, liver and kidney after 30 d oral gavage (HPLC after DMB derivatisation)
Assay type: in vivo
Details: male SD rats, oral gavage 200 mg/(kg.d) in 0.5% sodium carboxymethylcellulose, vs blank control (HPLC peak area)

## O=c1c(O)c(-c2ccc(O)cc2)oc2cc(O)cc(O)c12 [山奈酚]
kidney
  Neu5Gc degradation rate, kidney sample: 17.55%
liver
  Neu5Gc degradation rate, liver sample: 6.315%
Thigh muscle
  Neu5Gc degradation rate, meat sample: 13.356%
